Data as given in patent US12329741B2, “HBV inhibitor and its use” (priority 2019, dated 2025).

Legend:
[1] = Cytotoxicity test (Cell-titer Blue method) in HepG2.2.15 cells; assay type: cell-based; conditions: human, six days after treatment, highest concentration tested 100 μM, read-out: HepG2.2.15 cell viability CC50
Text: (§1) In this experiment, real-time fluorescent quantitative PCR (qPCR) method was used to detect the content of HBV DNA in the supernatant of HepG2.2.15 cells to determine the anti-hepatitis B virus activity of the compound in HepG2.2.15 cells, and to detect cell viability impact of the test compound against HepG2.2.15 by Cell-titer Blue method. In the experiment, entecavir (ETV) was used as a reference compound to monitor the quality of the experiment.
The compound concentration, plate layout, and compound treatment process are consistent with the antiviral experiments. In six days after the cells were treated with the compound, the cell viability was measured with Cell-titer Blue.
Analyze the data and calculate relative cell viability: Use the following formula to calculate the percentage of cell viability: % Cell viability=(sample fluorescence reading-fluorescence reading of culture medium control)/(fluorescence reading of DMSO control-fluorescence reading of the culture medium control)×100.
Finally, GraphPad Prism software was used to calculate the CC50 value of the compound.

hepatitis B virus (HBV) = assay: Anti-hepatitis B virus activity: HBV DNA in supernatant of HepG2.2.15 cells by qPCR; assay type: cell-based; conditions: 192 h, supernatant collected on day 8
Text: as §1
On day 1, the cells were planted into a 96-well plate, the compound was added to treat the cells on day 2, a new culture medium containing the compound was replaced on day 5, and the supernatant was collected on day 8 to extract DNA. Quantitative PCR was used to detect the content of HBV DNA. Both the test compound and the control compound were diluted in a series of 3 times with 8 concentration points, and 2 replicate wells were measured in parallel. The final concentration of DMSO in the culture medium is 0.5%.
The calculation formula of the inhibition percentage is as follows: % inh.=(1-HBV copy number of sample/HBV copy number of 0.5% DMSO control)×100
EC50 was analyzed by Graphpad Prism software (four parameter logistic equations).

[2] = Pharmacokinetics (PK) experiment, intragastric administration in rats; assay type: in vivo, Male SD rats; conditions: for AUC(0-inf) / Cmax / Tmax / half-life / AUC(0-t): male, SD, rat, po, intragastric administration 20 mg/kg, plasma; for AUC(0-t): read-out: AUC0-24; for absorption after oral administration / blood exposure: oral administration
Method: Male SD rats weighing 215-343 grams were fasted overnight before the test. The test compound was completely dissolved in 5% of the total volume of DMSO and then diluted with 30% Captisol to 2 mg/mL, and then it was administered by gavage at dosage of 20 mg/kg. In 15 minutes, 30 minutes, 1, 2, 4, 6, 8 and 24 hours after the administration, blood was taken from the end of the tails of rats at about 0.3 ml at each time point. The blood sample was placed in a centrifuge tube containing K2-EDTA, and centrifuged (@3500 rpm, 10 minutes, 4° C.). Take the plasma and store it in an ultra-low temperature refrigerator at −80° C. 50 μL of plasma sample was mixed with 135 μl of acetonitrile (including the internal standard IS), and then vortexed for 30 s, centrifuged at 15000 rpm at 4° C. for 10 min, and 10 μl of supernatant was taken as sample and injected into LC-MS/MS for analysis.

| SMILES | CC50 at 6 days [1] [µM] | EC50 (hepatitis B virus (HBV)) [µM] | also measured |
| --- | --- | --- | --- |
| C#CC(C)(C)NC(=O)C(=O)c1c(C)c(C(=O)Nc2ccc3occc3c2)n(C)c1C [Compound 54, 1,3,5-Trimethyl-2-amide-N-(benzofuran-5-yl)-4-(2-(1,1-dimethylpropynamido)-oxalyl)-pyrrole] | > 100 | ≤ 0.05 | AUC(0-inf) [2]: 87400 ng·h/mL; Cmax [2]: 9430 ng/mL; Tmax [2]: 1.67 h; half-life [2]: 2.52 h; AUC(0-t) [2]: 87200 ng·h/mL |
| Cc1sc(C(=O)C(=O)NC(C)(C)C)c(C)c1C(=O)Nc1ccc(F)c(Cl)c1 [Compound 36, 2,4-Dimethyl-3-amide-N-(3-chloro-4-fluorophenyl)-5-(2-tert-butylamino-oxalyl)-thiophene] | > 100 | ≤ 0.05 | AUC(0-inf) [2]: 32600 ng·h/mL; Cmax [2]: 3730 ng/mL; Tmax [2]: 0.5 h; half-life [2]: 12.2 h; AUC(0-t) [2]: 25800 ng·h/mL; absorption after oral administration [2]: well absorbed; blood exposure [2]: relatively high |
| C#CCNC(=O)C(=O)c1cc(C(=O)Nc2ccc(F)c(Cl)c2)c(C)o1 [Compound 2, 2-Methyl-3-amide-N-(3-chloro-4-fluorophenyl)-5-(2-propargylamino-oxalyl)-furan] | 61 | 5 to 50 | absorption after oral administration [2]: well absorbed; blood exposure [2]: relatively high |
| Cc1c(C(=O)C(=O)NC(C)(C)C)c(C)n(C)c1C(=O)Nc1ccc2occc2c1 [Compound 52, 1,3,5-Trimethyl-2-amide-N-(benzofuran-5)-4-(2-tert-butylamino-oxalyl)-pyrrole] | > 100 | ≤ 0.05 | AUC(0-inf) [2]: 17100 ng·h/mL; Cmax [2]: 3670 ng/mL; Tmax [2]: 1 h; half-life [2]: 2.39 h; AUC(0-t) [2]: 17100 ng·h/mL |
| Cc1oc(C(=O)C(=O)NCc2cn(C3CC3)nn2)cc1C(=O)Nc1ccc(F)c(Cl)c1 [Compound 11, 2-Methyl-3-amide-N-(3-chloro-4-fluorophenyl)-5-(2-(1-cyclopropyl-1H-[1,2,3]triazole-4-ylmethylamino)-oxalyl)-furan] |  |  | absorption after oral administration [2]: well absorbed; blood exposure [2]: relatively high |
| C#CC(C)(C)NC(=O)C(=O)c1cc(C(=O)Nc2ccc(F)c(Cl)c2)c(C)o1 [Compound 4, 2-Methyl-3-amide-N-(3-chloro-4-fluorophenyl)-5-(2-(1,1-dimethylpropynamido)-oxalyl)-furan] | > 100 | 0.5 to 5 |  |
| Cc1oc(C(=O)C(=O)NC(C)(C)C)cc1C(=O)Nc1cc(F)c(F)c(F)c1 [Compound 20, 2-Methyl-3-amide-N-(3,4,5-trifluorophenyl)-5-(2-tert-butylamino-oxalyl)-furan] | > 100 | 0.05 to 0.5 |  |
| Cc1oc(C(=O)C(=O)NC(C)(C)C)cc1C(=O)Nc1ccc(F)c(F)c1 [Compound 19, 2-Methyl-3-amide-N-(3,4-difluorophenyl)-5-(2-tert-butylamino-oxalyl)-furan] | > 100 | 0.5 to 5 |  |
| C#CCNC(=O)C(=O)c1c(C)c(C(=O)Nc2ccc3ccccc3c2)n(C)c1C [Compound 66, 1,3,5-Trimethyl-2-amide-N-(naphthalen-2-yl)-4-(2-propargylamino-oxalyl)-pyrrole] | > 100 | 0.05 to 0.5 |  |
| C#CCNC(=O)C(=O)c1c(C)c(C(=O)Nc2ccc3occc3c2)n(C)c1C [Compound 53, 1,3,5-Trimethyl-2-amide-N-(benzofuran-5-yl)-4-(2-propargylamino-oxalyl)-pyrrole] | > 100 | ≤ 0.05 | AUC(0-inf) [2]: 26400 ng·h/mL; Cmax [2]: 3930 ng/mL; Tmax [2]: 1.58 h; half-life [2]: 2.48 h; AUC(0-t) [2]: 26300 ng·h/mL |
| C#CC(C)(C)NC(=O)C(=O)c1c(C)c(C(=O)Nc2ccc(F)c(F)c2)n(S(C)(=O)=O)c1C [Compound 81, 1-Methylsulfo-2-amide-N-(3,4-difluorophenyl)-3,5-dimethyl-4-(2-(1,1-dimethylpropynamine)-oxalyl)pyrrole] | > 100 | 0.05 to 0.5 |  |
| Cc1oc(C(=O)C(=O)NC(C)(C)C)cc1C(=O)Nc1ccc(F)c(C#N)c1 [Compound 21] | > 100 | 0.5 to 5 |  |
| CC(C)(C)NC(=O)C(=O)c1cc(C(=O)Nc2ccc(F)cc2)co1 [Compound 42, 3-Amide-N-(4-fluorophenyl)-5-(2-tert-butylamino-oxalyl)-furan] | > 100 | 5 to 50 | absorption after oral administration [2]: well absorbed; blood exposure [2]: relatively high |
| Cc1oc(C(=O)C(=O)NC(C)(C)C)cc1C(=O)Nc1ccc(F)c(Cl)c1 [Compound 1, 2-Methyl-3-amide-N-(3-chloro-4-fluorophenyl)-5-(2-tert-butylamino-oxalyl)-furan] | > 100 | 0.5 to 5 |  |
| C#CC(C)(C)NC(=O)C(=O)c1sc(C)c(C(=O)Nc2ccc(F)c(Cl)c2)c1C [Compound 38, 2,4-Dimethyl-3-amide-N-(3-chloro-4-fluorophenyl)-5-(2-(1,1-dimethylpropynamido)-oxalyl)-thiophene] | > 100 | ≤ 0.05 |  |
| C#CCNC(=O)C(=O)c1c(C)c(C(=O)Nc2ccc3sccc3c2)n(C)c1C [Compound 63, 1,3,5-Trimethyl-2-amide-N-(benzothiophen-5-yl)-4-(2-propargylamino-oxalyl)-pyrrole] | > 100 | 0.05 to 0.5 |  |
| Cc1c(C(=O)C(=O)NC2(C)COC2)c(C)n(C)c1C(=O)Nc1ccc2occc2c1 [Compound 57, 1,3,5-Trimethyl-2-amide-N-(benzofuran-5-yl)-4-(2-(3-methyl-3-oxetanino)-oxalyl)-pyrrole] | > 100 | ≤ 0.05 |  |
| CNC(=O)C1(NC(=O)C(=O)c2c(C)c(C(=O)Nc3ccc4occc4c3)n(C)c2C)CC(F)(F)C1 [Compound 60, 1,3,5-Trimethyl-2-amide-N-(benzofuran-5-yl)-4-(2-(N-methyl-1-carboxamide-3,3-difluorocyclobutane-1-amine)-oxalyl)-pyrrole] | > 100 | ≤ 0.05 |  |
| Cc1oc(C(=O)C(=O)NC(C)(C)C)cc1C(=O)Nc1ccc(F)cc1 [Compound 18, 2-Methyl-3-amide-N-(4-fluorophenyl)-5-(2-tert-butylamino-oxalyl)-furan] | > 100 | 0.5 to 5 |  |
| Cc1oc(C(=O)C(=O)NCC#Cc2ccccc2)cc1C(=O)Nc1ccc(F)c(Cl)c1 [Compound 7, 2-Methyl-3-amide-N-(3-chloro-4-fluorophenyl)-5-(2-(3-phenyl-2-eynylpropylamino)-oxalyl)-furan] | 29 | > 50 |  |
| Cc1sc(C(=O)C(=O)NC(C)(C)C)cc1C(=O)Nc1ccc(F)c(F)c1 [Compound 34, 2-Methyl-3-amide-N-(3,4-difluorophenyl)-5-(2-tert-butylamino-oxalyl)-thiophene] | > 100 | 0.05 to 0.5 |  |
| C#CCNC(=O)C(=O)c1c(C)c(C(=O)Nc2ccc3c(cnn3C)c2)n(C)c1C [Compound 73, 1,3,5-trimethyl-2-amide-N-(1-methyl-1H-indazol-5-yl)-4-(2-propargylamino-oxalyl)-pyrrole] | > 100 | 0.5 to 5 |  |
| CC(C)(C)NC(=O)C(=O)c1nc(C(=O)Nc2ccc(F)c(Cl)c2)cs1 [Compound 44, 2-(2-Tert-Butylamino-oxalyl)-4-amide-N-(3-chloro-4-fluoro-phenyl)-thiazole] | 28 | > 50 |  |
| Cc1oc(C(=O)C(=O)NCc2nccn2C)cc1C(=O)Nc1ccc(F)c(Cl)c1 [Compound 8] | > 100 | 5 to 50 | absorption after oral administration [2]: well absorbed; blood exposure [2]: relatively high |
| Cc1c(C(=O)C(=O)NC(C)C(F)(F)F)c(C)n(C)c1C(=O)Nc1ccc2occc2c1 (stereo in doubt) [Compound 56, 1,3,5-Trimethyl-2-amide-N-(benzofuran-5-yl)-4-(2-((S)-1,1,1-trifluoropropane-2-Amino)-oxalyl)-pyrrole] | > 100 | ≤ 0.05 |  |
